According to patent US4495189A, “Condensed pyrimidines” (priority 1975, dated 1985):
Read-outs that look alike come from different tables or passages of the source.

Legend:
[1] = test system: PGE1; assay: Oedema inhibition, inflammation caused by prostaglandin E1; format: in vivo
Source text: (§1) Thus, it is appropriate to test the effectiveness of a representative compound of the invention in the inflammation response caused by prostaglandin E1 and E2, particularly from the point of view of the vessel wall permeability, which plays an important role in the inflammation.

[2] = test system: PGE2; assay: Oedema inhibition, inflammation caused by prostaglandin E2; format: in vivo
Source text: as §1

[3] = test system: PGE1; assay: Vessel wall permeability inhibition, prostaglandin E1; format: in vivo
Source text: as §1

[4] = test system: PGE2; assay: Vessel wall permeability inhibition, prostaglandin E2; format: in vivo
Source text: as §1

[5] = in vivo; conditions: rat, po
[6] = in vivo; conditions: mouse, po
[7] = test system: rat paw oedema; assay: Antiphlogistic activity, rat paw oedema method (Domenju); format: in vivo
Protocol: The antiphlogistic activity was tested by the rat paw oedema method (Domenju, R: Ann. Univ. Saraviensis 1,317, 1953). The compound were compared with the currently used therapeutic agents Phenylbutazone, aspirin, Indomethacin, Mebron and Amidazophenum.

[8] = Antiphlogistic activity, method of Northove; format: in vivo; conditions: 100 mg/kg
Source text: Favorable antiphlogistic properties were found in tests carried out by the method of Northove.

[9] = test system: rats; assay: Chronic toxicity test, ulcerogenicity in rats; format: in vivo; conditions: one-month old rats, 50 mg/kg, chronic toxicity tests
[10] = test system: collagen induced thrombocyte aggregation; assay: Inhibition of collagen induced thrombocyte aggregation (in vitro); format: cell-based
Source text: In Table 6 the inhibition of collagen induced thrombocyte aggregation under in vitro conditions is shown.

[11] = Acute toxicity on rats (i.v.); conditions: rat, in vivo, iv
Source text: (§2) Acute toxicity, analgesic and platelet aggregation inhibiting activity of "CH-105" was compared with the same activities of RIMAZOLIUM. RIMAZOLIUM is a commercial product, which is a quaternary salt chemically, but exerts its activity as a tautomeric enamine [Arzneimittel Forschung 21, 717-719 and 719-727 (1971)].

[12] = test system: rats; assay: Analgesic activity on rats, hot plate, per os; format: in vivo; conditions: Rattus norvegicus, po
Source text: as §2

[13] = test system: mice; assay: Analgesic activity on "Writing" test, on mice; format: in vivo; conditions: Mus musculus
Source text: as §2

[14] = test system: platelet aggregation; assay: Platelet aggregation inhibiting activity, comparison of CH-105 and Rimazolium; conditions: same conditions for CH-105 and Rimazolium
Source text: as §2

[15] = Pharmacological and toxicological tests (summary)

## CC(=O)Oc1ccccc1C(=O)O [Aspirin]
[1]; 200 mg/kg
  Oedema inhibition %, PGE1: 41%
[1]; 500 mg/kg
  Oedema inhibition %, PGE1: 45%
[2]; 200 mg/kg
  Oedema inhibition %, PGE2: 20%
[2]; 500 mg/kg
  Oedema inhibition %, PGE2: 54%
[3]; 200 mg/kg
  Vessel wall permeability inhibition %, PGE1: 30%
[3]; 500 mg/kg
  Vessel wall permeability inhibition %, PGE1: 42%
[4]; 200 mg/kg
  Vessel wall permeability inhibition %, PGE2: 25%
[4]; 500 mg/kg
  Vessel wall permeability inhibition %, PGE2: 50%
[5]
  LD50: 1600 mg/kg
[6]
  LD50: 1100 mg/kg

## CC1CCC=C2N(C)C=C(C(N)=O)C(=O)N21 (centres unmarked) [CH-105, 1,6-dimethyl-3-carbamoyl-4-oxo-1,6,7,8-tetrahydro-4H-pyrido[1,2-a]pyrimidine]
[7]; 100 mg/kg
  Oedema inhibiting effect in %, 1 hour after the administration of the substance: 25%
  Oedema inhibiting effect in %, 2 hours after the administration of the substance: 34%
[7]; 300 mg/kg
  Oedema inhibiting effect in %, 1 hour after the administration of the substance: 45%
  Oedema inhibiting effect in %, 2 hours after the administration of the substance: 52%
  Oedema inhibiting effect in %, 24 hours after the administration of the substance: 8%
[1]; 200 mg/kg
  Oedema inhibition %, PGE1: 30%
[1]; 500 mg/kg
  Oedema inhibition %, PGE1: 42%
[1]; data of Table 2, PGE1 and PGE2, compared with aspirin
  activity as an oedema inhibitor or a vessel wall permeability reducing agent: activity of the same range as the known active prostaglandinantagonist, aspirin
[2]; 200 mg/kg
  Oedema inhibition %, PGE2: 31%
[2]; 500 mg/kg
  Oedema inhibition %, PGE2: 45%
[3]; 200 mg/kg
  Vessel wall permeability inhibition %, PGE1: 40%
[3]; 500 mg/kg
  Vessel wall permeability inhibition %, PGE1: 40%
[4]; 200 mg/kg
  Vessel wall permeability inhibition %, PGE2: 35%
[4]; 500 mg/kg
  Vessel wall permeability inhibition %, PGE2: 50%
[8]
  Antiphlogistic activity (%), 1 hour: 40%
  Antiphlogistic activity (%), 2 hours: 55%
  Antiphlogistic activity (%), 24 hours: 30%
[9]
  ulcerogenicity: not ulcerogenic
[10]; 1 × 10^-3 mole
  Inhibition of collagen induced thrombocyte aggregation in %: 100%
[10]; 1 × 10^-4 mole
  Inhibition of collagen induced thrombocyte aggregation in %: 90%
[11]
  LD50: 960 µmol/kg
[12]
  ED50: 410 µmol/kg
[13]
  ED50: 210 µmol/kg
[14]
  platelet aggregation inhibiting activity: excellent platelet aggregation inhibiting activity
[15]
  antiphlogistic activity, analgesic activity and therapeutic index (in words): significant antiphlogistic activity, analgesic activity and have a favorable therapeutic index
Modified writhing test
  ED50: 70 mg/kg
  Therapeutic Index: 14
[5]
  LD50: 750 mg/kg
[6]
  LD50: 975 mg/kg

## CC1CCC=C2N(C)C=C(C(=O)NC(C)(C)C)C(=O)N21 (centres unmarked) [Example 5, 1,6-dimethyl-3-(N-tert-butyl-carbamoyl)-4-oxo-1,6,7,8-tetrahydro-4H-pyrido(1,2a)pyrimidine]
[7]; 125 mg/kg
  Oedema inhibiting effect in %, 2 hours after the administration of the substance: 50%
[10]; 1 × 10^-3 mole
  Inhibition of collagen induced thrombocyte aggregation in %: 99%
[10]; 1 × 10^-4 mole
  Inhibition of collagen induced thrombocyte aggregation in %: 85%

## CC1CCC=C2N(C)C=C(C(=O)Nc3ccccc3)C(=O)N21 (centres unmarked) [Example 6, 1,6-dimethyl-3-(N-phenylcarbamoyl)-4-oxo-1,6,7,8-tetrahydro-4H-pyrido(1,2a)pyrimidine]
[7]; 500 mg/kg
  Oedema inhibiting effect in %, 2 hours after the administration of the substance: 53%
[10]; 1 × 10^-3 mole
  Inhibition of collagen induced thrombocyte aggregation in %: 56%
[10]; 1 × 10^-4 mole
  Inhibition of collagen induced thrombocyte aggregation in %: 29%

## CNC(=O)C1=CN(C)C2=CCCC(C)N2C1=O (centres unmarked) [Example 7, 1,6-dimethyl-3-(N-methyl-carbamoyl)-4-oxo-1,6,7,8-tetrahydro-4H-pyrido(1,2a)pyrimidine]
[7]; 500 mg/kg
  Oedema inhibiting effect in %, 2 hours after the administration of the substance: 60%
[10]; 1 × 10^-3 mole
  Inhibition of collagen induced thrombocyte aggregation in %: 100%
[10]; 1 × 10^-4 mole
  Inhibition of collagen induced thrombocyte aggregation in %: 95%

## CC1CCC=C2N(C)C=C(C(=O)NCCC(c3ccccc3)c3ccccc3)C(=O)N21 (centres unmarked) [Example 9, 1,6-dimethyl-3-[N-(3,3-diphenyl-propyl)-carbamoyl]-4-oxo-1,6,7,8-tetrahydro-4H-pyrido(1,2a)pyrimidine]
[10]; 1 × 10^-3 mole
  Inhibition of collagen induced thrombocyte aggregation in %: 70%
[10]; 1 × 10^-4 mole
  Inhibition of collagen induced thrombocyte aggregation in %: 60%

## CC1CCC=C2N(C)C=C(C(=O)NCCc3ccccc3)C(=O)N21 (centres unmarked) [Example 11, 1,6-dimethyl-3-[N-(2-phenyl-ethyl)-carbamoyl]-4-oxo-1,6,7,8-tetrahydro-4H-pyrido(1,2a)pyrimidine]
[7]; 125 mg/kg
  Oedema inhibiting effect in %, 2 hours after the administration of the substance: 38%
[10]; 1 × 10^-3 mole
  Inhibition of collagen induced thrombocyte aggregation in %: 96%
[10]; 1 × 10^-4 mole
  Inhibition of collagen induced thrombocyte aggregation in %: 92%

## COc1ccc2c(c1)c(CC(=O)O)c(C)n2C(=O)c1ccc(Cl)cc1 [Indomethacin]
Modified writhing test
  ED50: 2.4 mg/kg
  Therapeutic Index: 12

## COc1cc(C)nc(-n2nc(C)cc2OC)n1 [Mebron]
[7]; 100 mg/kg
  Oedema inhibiting effect in %, 1 hour after the administration of the substance: 8%
  Oedema inhibiting effect in %, 2 hours after the administration of the substance: 22%
[7]; 300 mg/kg
  Oedema inhibiting effect in %, 1 hour after the administration of the substance: 25%
  Oedema inhibiting effect in %, 2 hours after the administration of the substance: 25%
  Oedema inhibiting effect in %, 24 hours after the administration of the substance: 3%
[8]
  Antiphlogistic activity (%), 1 hour: 23%
  Antiphlogistic activity (%), 2 hours: 23%
  Antiphlogistic activity (%), 24 hours: 0%
In vivo
  Therapeutic Index: 4.3
Modified writhing test
  ED50: 380 mg/kg

## CCCCC1C(=O)N(c2ccccc2)N(c2ccccc2)C1=O [Phenylbutazone]
[7]; 100 mg/kg
  Oedema inhibiting effect in %, 1 hour after the administration of the substance: 2%
  Oedema inhibiting effect in %, 2 hours after the administration of the substance: 2%
[7]; 200 mg/kg
  Oedema inhibiting effect in %, 1 hour after the administration of the substance: 11%
  Oedema inhibiting effect in %, 2 hours after the administration of the substance: 10%
  Oedema inhibiting effect in %, 24 hours after the administration of the substance: 3%
[1]; 100 mg/kg
  Oedema inhibition %, PGE1: 35%
[1]; 200 mg/kg
  Oedema inhibition %, PGE1: 15%
[2]; 100 mg/kg
  Oedema inhibition %, PGE2: 10%
[2]; 200 mg/kg
  Oedema inhibition %, PGE2: 28%
[3]; 100 mg/kg
  Vessel wall permeability inhibition %, PGE1: 10%
[3]; 200 mg/kg
  Vessel wall permeability inhibition %, PGE1: 20%
[4]; 100 mg/kg
  Vessel wall permeability inhibition %, PGE2: 5%
[4]; 200 mg/kg
  Vessel wall permeability inhibition %, PGE2: 20%
[8]
  Antiphlogistic activity (%), 1 hour: 13%
  Antiphlogistic activity (%), 2 hours: 20%
  Antiphlogistic activity (%), 24 hours: 0%
Modified writhing test
  ED50: 63 mg/kg

## CCOC(=O)c1c[n+](C)c2n(c1=O)C(C)CCC2 (centres unmarked) [Rimazolium, 1,6-dimethyl-3-carbethoxy-4-oxo-6,7,8,9-tetrahydrohomopyrimidazol-methylsulfate]
[11]
  LD50: 610 µmol/kg
[12]
  ED50: 620 µmol/kg
[13]
  ED50: 1050 µmol/kg
[14]
  platelet aggregation inhibiting activity: practically ineffective
